According to US20250179167A1, “IL-6 INHIBITOR AS TREATMENT FOR NEPHROPATHY” (YALE UNIVERSITY, priority 2022, published 2025):

Columns and labels:
Assay type in all cases: in vivo, mouse
[1] = test system: isolated kidney ECs of diabetic CD-1 mice; assay: Fatty acid oxidation ([14CO2] release) in isolated kidney endothelial cells
Protocol: (FIG. 31B) Fatty acid oxidation, as represented by [^14CO2]released. [^14C]palmitate was used as substrate and CPM counts were normalized to protein. In both cases, endothelial cells isolated from n=5 biologically independent mice/group were analyzed in triplicate. Data are mean±SEM. One-way Anova with Tukey multiple comparison post hoc test was used to calculate statistical significance. Significance—*p<0.05, **p<0.01, ***p<0.001. Fatty Acid Oxidation. Cultured isolated kidney endothelial cells were incubated with medium containing 0.75 mmol/L palmitate (conjugated to 2% free fatty acid-free BSA/[^14C]palmitate at 2 μCi/mL) for 2 h. One mL of the culture medium was transferred to a sealable tube, the cap of which housed a Whatman filter paper disc. ^14CO2 trapped in the media was then released by acidification of media using 60% perchloric acid. Radioactivity that had become adsorbed onto the filter discs was then quantified by liquid scintillation counting.

diabetic CD-1 mice [2] = assay: Wnt inhibitor (LGK974) treatment in diabetic CD-1 mice, renal histology, GR and β-catenin
Protocol: (§1) FIG. 24A-24J show inhibition of Wnt signaling abolished the fibrogenic phenotype in mice. (FIG. 24A) Immunohistochemical analysis of -catenin expression in the kidneys of control and diabetic CD-1 and C57BL/6 mice. n=8 biologically independent mice/group combined from two independent experiments were evaluated. Scale bar 50 μm. Representative images are shown; original magnification 200×. (FIG. 24B) Relative mRNA expression determined by qRT-PCR of Axin2, Tcf and fibronectin, in kidneys of control and diabetic CD-1 and C57BL/6 mice. n=6 biologically independent mice/group combined from two experiments were evaluated. Expression was normalized to the internal control 18S. (FIG. 24C) Schematic diagram representing the treatment protocol of Wnt inhibitor (LGK974; 5 mg/kg body weight) in diabetic CD-1 mice and (FIG. 24D) in UUO mice. (FIG. 24E) Masson trichrome and Sirius red staining in the kidneys of diabetic and Wnt inhibitor-treated diabetic CD-1 mice. Representative images (original magnification 300×) are shown. Relative area of fibrosis (%) and relative collagen deposition (%) were measured using the ImageJ program. n=8 biologically independent mice/group combined from two experiments were evaluated. Scale bar 50 μm. (FIG. 24F) Masson trichrome and Sirius red staining in the kidneys of UUO and Wnt inhibitor-treated UUO mice. Representative images (original magnification 300×) are shown. Relative area of fibrosis (%) and relative collagen deposition (%) were measured using the ImageJ program. n=8 biologically independent mice/group combined from two experiments were evaluated. Scale bar 50 μm. (FIGS. 24G-24H) GR protein levels in CD31-positive cells were analyzed by immunofluorescence in the kidneys of Wnti-treated diabetic mice and Wnti-treated UUO mice. FITC-labeled GR, rhodamine-labeled CD31 and DAPI were used. Merged images and representative pictures are shown; original magnification 300×. n=7 biologically independent mice/group combined from four experiments were evaluated. Scale bar 50 μm. (FIGS. 24I-24J) Immunohistochemical analysis of active -catenin expression in Wnti-treated diabetic mice and Wnti-treated UUO mice. n=7 biologically independent mice/group combined from three experiments were evaluated. Scale bar 30 μm. Data are mean SEM. In all panels, one-way Anova with Tukey multiple comparison post hoc test was used to calculate statistical significance. Significance—*p<0.05, **p<0.01, ***p<0.001.
A single IP dose of 200 mg/kg STZ was used to induce diabetes in CD-1 mice.
(§2) In one experiment, male mice were randomized to one of 4 groups sixteen weeks after induction of diabetes: (i) untreated, (ii) fenofibrate (100 mg/kg), (iii) simvastatin (40 mg/kg), or (iv) Wnt inhibitor (LGK974; 5 mg/kg). In each case, mice were treated for 4 weeks and compared to untreated diabetic CD-1 mice. In another experiment, male diabetic CD-1 mice were randomized into one of 3 groups: (i) untreated (vehicle), (ii) etomoxir (20 mg/kg) or (iii) C75 (15 mg/kg); in each case mice were treated (IP) three times/week for a total 4 weeks.
(§3) Morphological Evaluation. A point-counting method was utilized to evaluate the relative area of the mesangial matrix. The inventors analyzed PAS-stained glomeruli from each mouse using a digital microscope screen grid containing 540 (27×20) points. Masson's trichrome-stained images were evaluated by ImageJ software, and the fibrotic areas were estimated.
Sirius red staining. Deparaffinized sections were incubated with picrosirius red solution for 1 hour at room temperature. The slides were washed twice with acetic acid solution for 30 seconds per wash. The slides were then dehydrated in absolute alcohol three times, cleared in xylene, and mounted with a synthetic resin. Sirius red staining was analyzed using ImageJ software, and fibrotic areas were quantified.
Immunohistochemistry. […]

diabetic CD-1 mice [3] = assay: Plasma cytokine array (Luminex) in diabetic CD-1 mice with and without Wnti treatment
Protocol: as §2, with “Plasma cytokines and chemokines were measured in diabetic CD-1 mice with and without Wnti treatment by using a cytokine array analysis (Luminex). n=5 biologically independent mice/group. Data are mean±SEM. Student's-test (unpaired two-tailed) was used for analysis of statistical significance. Significance—*p<0.05. In one” for “In one”

ECs from CD-1 mice = assay: Fatty acid uptake ([14C]palmitate uptake) in isolated kidney endothelial cells
Protocol: (FIG. 31A) Fatty acid uptake was measured as [^14C]palmitate uptake. […] [^14C]palmitate was used as substrate and CPM counts were normalized to protein. In both cases, endothelial cells isolated from n=5 biologically independent mice/group were analyzed in triplicate. Data are mean±SEM. One-way Anova with Tukey multiple comparison post hoc test was used to calculate statistical significance. Significance—*p<0.05, **p<0.01, ***p<0.001. Fatty acid uptake. Cultured isolated kidney endothelial cells were incubated with medium containing 2 μCi [^14C]-palmitate. [^14C]-palmitate uptake was measured by liquid scintillation counting.

UUO mice = assay: Wnt inhibitor (LGK974) treatment in UUO mice, renal histology, GR and β-catenin
Protocol: as §1
Mouse model of unilateral ureteral obstruction (UUO). UUO surgical procedure was performed as previously described^19. Briefly, mice were anesthetized with isoflurane (3%-5% for induction and 1%-3% for maintenance). Mice were shaved on the left side of the abdomen, a vertical incision was made through the skin with a scalpel, and the skin was retracted. A second incision was made through the peritoneum to expose the kidney. The left ureter was ligated twice […] below the renal pelvis with surgical silk, and the ureter was then severed between the 2 ligatures. Then, the ligated kidney was placed gently back into its correct anatomical position, and sterile saline was added to replenish loss of fluid. The incisions were sutured and mice were individually caged. Buprenorphine was used as an analgesic. The first dose was administered 30 minutes before surgery and then every 12 h for 72 h, at a dose of 0.05 mg/kg subcutaneously. Mice were sacrificed and kidney and blood samples were harvested after perfusion with PBS at 10 days after UUO. Contralateral kidneys were used as a nonfibrotic control for all experiments using this model.
as §3
Sirius red staining. […]

[4] = test system: isolated endothelial cells; assay: Western blot in isolated endothelial cells from Wnt inhibitor-treated diabetic mice; conditions: isolated ECs from Wnt inhibitor-treated diabetic mice
Description: Western blot analysis of Snail1, PPARα, active-β-catenin, and HIF1α proteins in isolated endothelial cells. […] Densitometry calculations are combined from three independent experiments Data are mean±SEM. One-way Anova with Tukey multiple comparison post hoc test was used to calculate statistical significance. Significance—*p<0.05, **p<0.01, ***p<0.001. Isolation of endothelial cells. Endothelial cells from the kidneys of non-diabetic and diabetic mice were isolated using a standardized kit (Miltenyl Biotech, USA) by following the manufacturer's instructions. Briefly, kidneys were isolated and minced into small pieces. Using a series of enzymatic reactions by treating the tissue with trypsin and Collagenase type I solution, a single cell suspension was created. The pellet was dissolved with CD31 magnetic beads and the CD31-labelled cells were separated on a magnetic separator. The cells were further purified on a column. Cell number was counted by hemocytometer and cells were plated on 0.1% gelatin coated Petri dishes. Cell purity was measured by flow cytometry (BD FACSDiva) using PE-conjugated CD31 (BDB553373) (1:100) and FITC-conjugated CD45 (BDB553079) (1:100), both from Becton Dickinson (USA). Western blot. Protein lysates were boiled in sodium dodecyl sulfate (SDS) sample buffer at 94′C for 5 min. […]

[5] = kidney, GR in CD31-positive cells

Cc1cc(-c2ncc(CC(=O)Nc3ccc(-c4cnccn4)cn3)cc2C)ccn1 [LGK974]
level of FAO ([14CO2] release) [1]: able to restore the level of FAO | ECM deposition (diabetic CD-1 mice [2]; 5 mg/kg): greatly diminished | collagen accumulation (diabetic CD-1 mice [2]; 5 mg/kg): greatly diminished | glomerulosclerosis (diabetic CD-1 mice [2]; 5 mg/kg): greatly diminished | relative area of fibrosis (diabetic CD-1 mice [2]; 5 mg/kg): greatly diminished | level of β-catenin (diabetic CD-1 mice [2]; kidney immunohistochemistry): suppressed the level of β-catenin | endothelial GR (diabetic CD-1 mice [2]; [5]): substantially restored endothelial GR | plasma CCL4 level (diabetic CD-1 mice [3]): significantly suppressed | plasma CCL5 level (diabetic CD-1 mice [3]): increasing | plasma G-CSF level (diabetic CD-1 mice [3]): significantly suppressed | plasma IL-1β level (diabetic CD-1 mice [3]): significantly suppressed | plasma IL-6 level (diabetic CD-1 mice [3]): significantly suppressed | plasma IL-10 level (diabetic CD-1 mice [3]): significantly suppressed | plasma MCP-1 level (diabetic CD-1 mice [3]): significantly suppressed | plasma TNFα level (diabetic CD-1 mice [3]): significantly suppressed | FA uptake ([14C]palmitate uptake) (ECs from CD-1 mice): suppressed FA uptake | ECM deposition (UUO mice; 5 mg/kg): greatly diminished | collagen accumulation (UUO mice; 5 mg/kg): greatly diminished | glomerulosclerosis (UUO mice; 5 mg/kg): greatly diminished | relative area of fibrosis (UUO mice; 5 mg/kg): greatly diminished | level of β-catenin (UUO mice; kidney immunohistochemistry): suppressed the level of β-catenin | endothelial GR (UUO mice; [5]): substantially restored endothelial GR | Snail1, HIF1α and PPARα proteins [4]: A similar effect was observed
